Literature values, collected in US20070031570A1, “Hydrothermically processed compositions containing phytosterols” (Archer-Daniels-Midland Company, priority 2002, published 2007).
Where two headings read alike, the source gives them in different places.

Assays:
[1] = 2.8 g sitostanol/day given as sitostanol ester in margarine
[2] = not given; remark: listed apart in the source

sitostanol ester
reduced LDL cholesterol [1]: 16%
less effective at reducing cholesterol absorption compared to the unesterified sterol (humans, dissolved in dietary fat): 21%

neomycin
effect on cholesterol absorption (orally-administered): reduces cholesterol absorption effectively

CC[C@H](CC[C@@H](C)[C@H]1CC[C@H]2[C@@H]3CC[C@H]4C[C@@H](O)CC[C@]4(C)[C@H]3CC[C@]12C)C(C)C [sitostanol]
reduces cholesterol absorption (delivery system which avoids an oil phase ('562 and '776 patents)): ≤ 37%
effect on serum cholesterol ([2]; subjects with moderate hypercholesterolemia, 3 g/day): no effect
reduced serum cholesterol ([2]; subjects with severe hypercholesterolemia, 1.5 g/day): 15%

CC[C@H](CC[C@@H](C)[C@H]1CC[C@H]2[C@@H]3CC=C4C[C@@H](O)CC[C@]4(C)[C@H]3CC[C@]12C)C(C)C [sitosterol]
decrease serum cholesterol levels ([2]; dose-response study, 3-9 g/day of powdered sitosterol): 12%
reduced serum cholesterol ([2]; doses of 5-18 g sitosterol/day): 16-20%
